Positions of bridges follow the written chain, without caps; N, C: chain ends. No end group written: not given here.
Key:
Assay type in all cases: cell-based
TLR4 signaling pathway = TLR4 signaling pathway (SEAP) in HEK cells, peptide pre-treatment then LPS; conditions: peptide then LPS; 0.005 μM; 12 hours
Description: HEK cells were used to investigate the ability of the peptides to reduce activation of the TLR4 signaling pathway after 12 hours of treatment.
In the assay shown in FIG. 7A, the cells were treated with peptides for 1 hour, then LPS (100 ng/ml) was added. SEAP production was measured after 12 hours of treatment. In the assay shown in FIG. 7B, the cells were treated with LPS (100 ng/ml) for 1 hour, then the peptides were added. SEAP production was measured after 12 hours of treatment. LPS (100 ng/mL) was used as positive control and IL-10 (0.4 ng/mL) as negative control. * P<0.05; ** P<0.005; *** P<0.0005.

[1] = test system: Dendritic cells from mice bone marrow; test: Co-stimulatory molecules on bone marrow dendritic cells; conditions: CD11c+ dendritic cells, 24 hours
Description: Dendritic cells from mice bone marrow were isolated to analyze the effect of synthesized peptides Pep 1, Pep 2, Pep 3, and Pep 4 at two concentrations, 1 μM, and 10 μM, on reducing cell activation. […] In the assays, CD11c+CD86 cells (FIG. 8A) and CD11c+CD40+ cells (FIG. 8B) were used after 24 hours of treatment. LPS (100 ng/mL) was used as a positive control. * P<0.05; ** P<0.005.

[2] = test system: NFκB, IFN, or TLR4 signaling pathways; test: Reporter cell lines treated with peptides alone (no activating molecule); conditions: various concentrations, 12, 24 and 48 hours
Description: To investigate the ability of the peptides to interfere with the NFkB, IFN, and TLR4 pathways, reporter cell lines were used. To analyze whether the isolated peptides (without activation molecules) could induce any type of activation, the isolated peptides were tested in the cell lines during 12, 24, and 48 hours of treatment. […] As an example, FIGS. 2A, 2B, and 2C show an analysis of NFkB expression after stimulation with the synthesized peptides described in this report. The cells were treated with the synthesized peptides Pep 1, Pep 2, Pep 3, and Pep 4 at various concentrations for 12, 24, and 48 hours, without activating molecules. Luciferase was then measured after 12 hours of treatment (FIG. 2A), 24 hours of treatment (FIG. 2B), and 48 hours of treatment (FIG. 2C). […] TNF-α (200 ng/mL) was used as a positive control.

[3] = test system: T cells from allergic patients; test: Proliferation of T cells from allergic patients; conditions: 10 μM; 24 hours; Bet v 1 positive control
Description: To confirm the ability of the synthesized peptides to decrease dendritic cell activation, a composition containing Pep 1 at a concentration of 10 μM was chosen and the proliferation of T cells from allergic patients was measured after 24 hours of treatment. […] Cells were treated with Bet v 1 as a positive control, and an irrelevant peptide (IR) was used as a negative control.

NFκB [4] = test: NFkB expression in Jurkart-Dual reporter cells, TNF-α pre-treatment then peptides; conditions: for NFκB signaling: TNF-α then peptide
Description: Then another assay was performed in which the cells were pretreated with TNF-α and the peptides were added later. […] In the assays shown in FIGS. 4 A, B, and C the analysis of NFkB expression was performed in Jurkart-Dual reporter cells. Cells were treated with TNF-α (200 ng/ml) for 1 hour and the peptides were added. Luciferase was measured after 12 hours of treatment (FIG. 4A), 24 hours of treatment (FIG. 4B), and 48 hours of treatment (FIG. 4C). TNF-α (200 ng/mL) was used as a positive control and rIL-10 (Recombinant Interleukin-10) (0.4 ng/mL) as a negative control. * P<0.05; ** P<0.005; *** P<0.0005.

[5] = test system: mouse basophilic leukemia cells transfected with the human FcεRI IgE receptor (hRBL); test: IgE-mediated release of β-hexosaminidase (basophil degranulation) in hRBL cells; conditions: 1 μM; versus cells treated with Bet v1 alone; serum from seven birch pollen-allergic donors
Description: The effect of Pep 1 on IgE-mediated release was studied using mouse basophilic leukemia cells transfected with the human FcεRI IgE receptor (hRBL). The hRBL cells were sensitized with serum from seven patients allergic to birch pollen. The cells were stimulated with the antigen and its interaction with immobilized IgEs resulting in the release of β-hexosaminidase.
When cells were treated with a composition containing Pep 1 to 1 μM (FIG. 10A) or rIL10 (FIG. 10B), the amount of Bet v 1 required to induce the same amount of degranulation was higher than for cells treated with Bet v1 alone (P<0.05). Amount of rBet v 1 (ng/mL) required to induce half the release of β-hexosaminidase using serum from seven birch pollen-allergic donors after treatment with Pep 1 (A) (P<0.05) and rIL10 (B) * P<0.05.

cell line J774 = test: Cytokines production after treatment of cell line J774; design: levels of MCP-1: dose or concentration left out as unconfirmed
Description: After 24 hours of treatment, the produced amounts of IL-6, MCP-1, and TNF-α were measured. […] In contrast, when cells were treated with a composition of Pep 1 followed by incubation with LPS (1 mg/ml) for 24 hours to induce an inflammatory response, the peptide was able to decrease the production of IL-6, MCP-1, and TNF-α.
Each decrease was significant compared to cells treated with LPS alone (positive control). * P<0.05; ** P<0.005; *** P<0.0005

NFκB [6] = test: NFkB expression in Jurkart-Dual reporter cells, peptide pre-treatment then TNF-α; conditions: peptide 1 hour, then TNF-α 200 ng/ml; all concentrations tested; 12, 24 and 48 hours
Description: The assay was then performed using TNF-α as the activating molecule not only in the control, but after a pre-treatment with the synthesized peptides Pep 1, Pep 2, Pep 3, and Pep 4 at various concentrations. […] In the assays shown in FIGS. 3 A, B, and C, NFkB expression analysis was performed in Jurkart-Dual reporter cells. Cells were treated with peptides for 1 hour and TNF-α (200 ng/ml) was added. Luciferase was measured after 12 hours of treatment (FIG. 3A), 24 hours of treatment (FIG. 3B), and 48 hours of treatment (FIG. 3C).

Pep 1: synthetic peptide with affinity to the Interleukin-10 receptor, SEQ ID No 01, with disulfide bridges (HACSAVIKSSCGGGS; disulfide 3-11 (inferred))
TLR4 pathway activation (TLR4 signaling pathway): significantly reduced pathway activation
expression of CD86+ ([1]; 1 μM): decreased the expression of CD86+
expression of CD86+ ([1]; 10 μM): decreased the expression of CD86+
NFkB expression (luciferase) [2]: unable to elicit any response
T cell proliferation [3]: decreased T cell proliferation
NFκB signaling (NFκB [4]; 0.0001 μM, 24 hours): less activation of the analyzed signaling pathway
NFκB signaling (NFκB [4]; 0.001 μM, 12 hours): decreased the activation of the analyzed pathway
NFκB signaling (NFκB [4]; 0.001 μM, 24 hours): less activation of the analyzed signaling pathway
NFκB signaling (NFκB [4]; 0.001 μM, 48 hours): reducing NFκB signaling
NFκB signaling (NFκB [4]; 0.005 μM, 24 hours): less activation of the analyzed signaling pathway
NFκB signaling (NFκB [4]; 0.05 μM, 12 hours): decreased the activation of the analyzed pathway
NFκB signaling (NFκB [4]; 0.1 μM, 12 hours): decreased the activation of the analyzed pathway
NFκB signaling (NFκB [4]; 0.1 μM, 24 hours): less activation of the analyzed signaling pathway
NFκB signaling (NFκB [4]; 0.5 μM, 12 hours): decreased the activation of the analyzed pathway
NFκB signaling (NFκB [4]; 1 μM, 12 hours): decreased the activation of the analyzed pathway
NFκB signaling (NFκB [4]; 1 μM, 24 hours): less activation of the analyzed signaling pathway
NFκB signaling (NFκB [4]; 5 μM, 12 hours): decreased the activation of the analyzed pathway
NFκB signaling (NFκB [4]; 10 μM, 12 hours): decreased the activation of the analyzed pathway
NFκB signaling (NFκB [4]; 10 μM, 24 hours): less activation of the analyzed signaling pathway
NFκB signaling (NFκB [4]; 100 μM, 24 hours): less activation of the analyzed signaling pathway
NFκB activation (NFκB [4]; cells pretreated with TNF-α, all concentrations tested, 12 and 24 hours): decreased NFκB activation
amount of Bet v 1 required to induce the same amount of degranulation [5]: higher
IL-10, IFN-γ, or IL12p70 production (cell line J774; 24 hours of treatment (data not shown)): No interference
levels of IL-6 (cell line J774; peptide then LPS 24 hours, 1 μM and 10 μM printed beside IL-6, versus LPS alone): significantly reduced
levels of TNF-α (cell line J774; peptide then LPS 24 hours, 1 μM, 10 μM and 100 μM, versus LPS alone): significantly reduced
levels of MCP-1 (cell line J774; peptide then LPS 24 hours, versus LPS alone): significantly reduced
cytokine response to peptide alone (cell line J774; without LPS stimulation (data not shown)): unable to elicit any response
NFκB activation (NFκB [6]): able to decrease NFκB activation

Source: US20220204577A1, “Synthetic Peptides With Affinity for the Interleukin-10 Receptor, Pharmaceutical Composition and Use Thereof as Immunomodulators for Treating Autoimmune, Inflammatory or Allergic Diseases” (Universidade Federal de Uberlândia, priority 2019, published 2022)
